Measurements taken from article PMC2721767 (Purinergic Signalling, 2008).

Tested on: human washed platelets
Assay: ADP-induced aggregation of human washed platelets
Assay type: cell-based
Conditions: SCH442416 10 μM preapplication, data not shown

COc1ccc(CCCn2ncc3c2nc(N)n2nc(-c4ccco4)nc32)cc1 [SCH442416, 5-Amino-7-(3-(4-methoxy)phenylpropyl)-2-(2-furyl)pyrazolo[4,3-e]-1,2,4-triazolo[1,5-c]pyrimidine]
effect of antagonist on inhibition of platelet aggregation by 1 µM 10 (5 μM ADP): completely reversed the inhibitory effect
effect of antagonist alone on aggregation induced by 5 μM ADP: had no effect on aggregation
